The results in this text go back to ChEMBL document CHEMBL2384921, “An altered zinc-binding site confers resistance to a covalent inactivator of New Delhi metallo-beta-lactamase-1 (NDM-1) discovered by high-throughput screening” (Bioorg Med Chem, 2013).

pIC50: −log10 of the molar value. The source made the active and inactive calls. The rule behind the calls is not given here.

The nature of test [1]: Inhibition of NDM-1 (unknown origin) using nitrocefin as substrate preincubated 10 mins followed by substrate addition measured after 20 mins.
Test [2] in a line: Inhibition of TEM-1 (unknown origin) using nitrocefin as substrate preincubated 10 mins followed by substrate addition measured after 20 mins.
A short description of test [3]: Inhibition of TEM-1 (unknown origin) using nitrocefin as substrate preincubated 10 mins followed by substrate addition measured after 20 mins relative to control.
Test [4] in a line: Time-dependent inhibition of wild type NDM-1 (unknown origin) expressed in Escherichia coli BL21 (DE3) at 100 uM.
Test [5] can be described thus: Time-dependent inhibition of recombinant NDM-1 C108D mutant (unknown origin) expressed in Escherichia coli BL21 (DE3) at 100 uM.

For the compound `Cc1c2ccncc2c(C)c2c1[nH]c1ccccc12` [ELLIPTECINE], the pIC50 in test [1] and in test [2] was below 4.52 throughout.

As to `Nc1ccc2c3c(cccc13)C(=O)NC2=O`, the pIC50 in test [1] is 6.15; in test [2], 5.28. In test [3], this compound came in with an Imax of 131%.

For 4-[sequence] ACID, the Imax in test [3] was found to be 8%. Further, the inhibition result in test [4] was “Active”. In test [5], the inhibition entry was “inactive”.

For the compound 4-CHLOROMERCURIBENZOIC ACID, the pIC50 in test [1] is 5.64; in test [2], below 4.52.

Regarding `OCCN(CCO)c1nc(N2CCCCC2)c2nc(N(CCO)CCO)nc(N3CCCCC3)c2n1` [DIPYRIDAMOLE], the pIC50 in test [1] was below 5.00; in test [2] it was below 4.52. In addition, in test [3], the Imax was determined as 26%.

Consider `CC(=O)[C@]1(O)Cc2c(O)c3c(c(O)c2[C@@H](O[C@H]2C[C@H](N)[C@H](O)[C@H](C)O2)C1)C(=O)c1ccccc1C3=O` [IDARUBICIN], for which the pIC50 is 6.15 in test [1] and 5.14 in test [2]. In test [3], this compound had an Imax of 100%.

In the case of `Cn1cc(C2=C(c3ccc(Cl)cc3Cl)C(=O)NC2=O)c2ccccc21` [SB-216763], the pIC50 in test [1] was 4.55; in test [2] it was below 4.52. Also, in test [3], the Imax amounted to 2%.

Turning to `CCN(CC)C(=O)N[C@@H]1C[C@@H]2c3cccc4[nH]cc(c34)C[C@H]2N(C)C1`, the pIC50 in test [1] and in test [2] was below 4.52 in each case.

By pIC50 is commonly meant the IC50 on a negative log10 scale, so that one unit is a factor of ten.
